# Source: PMC6934184, “Selective DNA-PKcs inhibition extends the therapeutic index of localized radiotherapy and chemotherapy” (The Journal of Clinical Investigation, 2019)
# Target: T1, GSK3B (GSK3 beta) (Homo sapiens, UniProt P49841)
# T1 construct: purchased Thermo Fisher Scientific (Life Technologies) SelectScreen
# Test: SelectScreen Z'LYTE
# Type: biochemical
# Summary of the method: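 Percent values come from Thermo SelectScreen profiling of NU5455, combining activity and binding assays. CSF1R was run in Z'LYTE format at Km app ATP, and CAMK1 in Adapta format with ATP listed at 10.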
# T1 sequence (P49841 whole entry): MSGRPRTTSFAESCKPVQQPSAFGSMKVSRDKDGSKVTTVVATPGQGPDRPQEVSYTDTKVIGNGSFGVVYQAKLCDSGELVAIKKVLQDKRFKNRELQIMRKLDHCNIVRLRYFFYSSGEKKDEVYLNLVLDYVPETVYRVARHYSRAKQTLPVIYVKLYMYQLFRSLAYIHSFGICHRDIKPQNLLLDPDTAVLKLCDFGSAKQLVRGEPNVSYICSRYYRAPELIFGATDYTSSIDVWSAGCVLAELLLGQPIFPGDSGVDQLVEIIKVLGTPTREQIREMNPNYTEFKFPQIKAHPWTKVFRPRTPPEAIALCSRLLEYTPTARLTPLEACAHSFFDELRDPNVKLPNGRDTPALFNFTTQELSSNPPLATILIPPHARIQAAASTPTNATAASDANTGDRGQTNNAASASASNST
smiles,measurement,value
CN(C(=O)CN1CCOCC1)c1ccc2sc3c(-c4cccc5c(=O)cc(N6CC7CCC(C6)O7)oc45)cccc3c2c1 [NU5455],inhibition at 1 µM,-2.5%
